Source: US20140120083A1, “TREATMENT OF CANCERS USING PI3 KINASE ISOFORM MODULATORS” (INFINITY PHARMACEUTICALS, INC., priority 2012, published 2014)

Key:
Type in all cases: biochemical
PI3K α = molecular target: T1, PI3K α (Homo sapiens, UniProt P42336); test: In vitro IC50, PI3K α
T1 construct: purchased Upstate
Description: (§1) An exemplary system is PI 3-Kinase (human) HTRF™ Assay from Upstate.

PI3K β = PI3K β (Homo sapiens, UniProt P42338); test: In vitro IC50, PI3K β
Description: as §1

PI3K γ = molecular target: T2, PI3K γ (Homo sapiens, UniProt P48736); test: In vitro IC50, PI3K γ
T2 construct: purchased Sigma
Description: as §1

PI3K δ = PI3K δ (Homo sapiens, UniProt O00329); test: In vitro IC50, PI3K δ; set-up: purchased Upstate
Description: as §1

PI3K δ, sequence (O00329 whole entry): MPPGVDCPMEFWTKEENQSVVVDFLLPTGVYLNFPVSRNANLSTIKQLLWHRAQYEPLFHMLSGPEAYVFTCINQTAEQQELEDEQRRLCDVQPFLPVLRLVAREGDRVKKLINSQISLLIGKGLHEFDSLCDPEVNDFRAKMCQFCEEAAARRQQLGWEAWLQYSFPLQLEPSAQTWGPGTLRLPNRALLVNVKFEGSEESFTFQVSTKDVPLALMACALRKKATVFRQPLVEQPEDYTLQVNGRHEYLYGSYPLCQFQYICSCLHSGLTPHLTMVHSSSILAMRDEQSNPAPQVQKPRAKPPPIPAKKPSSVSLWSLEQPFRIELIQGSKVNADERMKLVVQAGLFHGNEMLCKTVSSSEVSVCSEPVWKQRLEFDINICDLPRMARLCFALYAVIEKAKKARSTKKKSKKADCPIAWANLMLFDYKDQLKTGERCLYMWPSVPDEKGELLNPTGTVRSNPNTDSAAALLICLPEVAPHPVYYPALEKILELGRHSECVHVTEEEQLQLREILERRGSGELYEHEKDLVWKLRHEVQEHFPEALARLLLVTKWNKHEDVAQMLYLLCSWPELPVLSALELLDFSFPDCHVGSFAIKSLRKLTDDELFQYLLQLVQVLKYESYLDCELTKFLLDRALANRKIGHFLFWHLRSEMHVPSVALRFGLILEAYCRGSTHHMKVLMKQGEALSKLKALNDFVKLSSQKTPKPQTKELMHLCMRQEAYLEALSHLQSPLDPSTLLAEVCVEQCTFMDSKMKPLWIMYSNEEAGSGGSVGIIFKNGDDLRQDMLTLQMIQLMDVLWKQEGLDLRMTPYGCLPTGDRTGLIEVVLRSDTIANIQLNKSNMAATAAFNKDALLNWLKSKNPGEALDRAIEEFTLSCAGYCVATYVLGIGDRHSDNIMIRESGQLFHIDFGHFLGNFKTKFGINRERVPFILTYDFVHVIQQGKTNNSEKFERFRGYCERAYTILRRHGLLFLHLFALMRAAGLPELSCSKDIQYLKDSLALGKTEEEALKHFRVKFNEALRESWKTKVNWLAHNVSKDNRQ
PI3K δ, sequence (P27986 whole entry partner): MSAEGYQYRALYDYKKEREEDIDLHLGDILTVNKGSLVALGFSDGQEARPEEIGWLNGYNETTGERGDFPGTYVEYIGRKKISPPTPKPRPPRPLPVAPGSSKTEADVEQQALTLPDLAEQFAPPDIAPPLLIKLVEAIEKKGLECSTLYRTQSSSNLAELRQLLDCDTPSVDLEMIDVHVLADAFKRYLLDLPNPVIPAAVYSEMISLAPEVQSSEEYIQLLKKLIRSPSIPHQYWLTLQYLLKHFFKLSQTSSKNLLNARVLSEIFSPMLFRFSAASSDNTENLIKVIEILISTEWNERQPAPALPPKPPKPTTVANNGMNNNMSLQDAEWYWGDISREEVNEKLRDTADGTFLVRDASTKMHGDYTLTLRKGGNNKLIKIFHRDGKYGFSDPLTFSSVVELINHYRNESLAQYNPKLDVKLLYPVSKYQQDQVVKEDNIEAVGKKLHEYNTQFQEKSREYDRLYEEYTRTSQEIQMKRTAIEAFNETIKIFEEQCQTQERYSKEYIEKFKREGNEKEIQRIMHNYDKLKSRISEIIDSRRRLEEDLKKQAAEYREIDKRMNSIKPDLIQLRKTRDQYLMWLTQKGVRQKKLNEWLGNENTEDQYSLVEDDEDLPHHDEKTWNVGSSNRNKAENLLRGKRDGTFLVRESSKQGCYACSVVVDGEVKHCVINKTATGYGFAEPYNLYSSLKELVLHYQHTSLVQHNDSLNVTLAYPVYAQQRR
T2 sequence (P48736 whole entry): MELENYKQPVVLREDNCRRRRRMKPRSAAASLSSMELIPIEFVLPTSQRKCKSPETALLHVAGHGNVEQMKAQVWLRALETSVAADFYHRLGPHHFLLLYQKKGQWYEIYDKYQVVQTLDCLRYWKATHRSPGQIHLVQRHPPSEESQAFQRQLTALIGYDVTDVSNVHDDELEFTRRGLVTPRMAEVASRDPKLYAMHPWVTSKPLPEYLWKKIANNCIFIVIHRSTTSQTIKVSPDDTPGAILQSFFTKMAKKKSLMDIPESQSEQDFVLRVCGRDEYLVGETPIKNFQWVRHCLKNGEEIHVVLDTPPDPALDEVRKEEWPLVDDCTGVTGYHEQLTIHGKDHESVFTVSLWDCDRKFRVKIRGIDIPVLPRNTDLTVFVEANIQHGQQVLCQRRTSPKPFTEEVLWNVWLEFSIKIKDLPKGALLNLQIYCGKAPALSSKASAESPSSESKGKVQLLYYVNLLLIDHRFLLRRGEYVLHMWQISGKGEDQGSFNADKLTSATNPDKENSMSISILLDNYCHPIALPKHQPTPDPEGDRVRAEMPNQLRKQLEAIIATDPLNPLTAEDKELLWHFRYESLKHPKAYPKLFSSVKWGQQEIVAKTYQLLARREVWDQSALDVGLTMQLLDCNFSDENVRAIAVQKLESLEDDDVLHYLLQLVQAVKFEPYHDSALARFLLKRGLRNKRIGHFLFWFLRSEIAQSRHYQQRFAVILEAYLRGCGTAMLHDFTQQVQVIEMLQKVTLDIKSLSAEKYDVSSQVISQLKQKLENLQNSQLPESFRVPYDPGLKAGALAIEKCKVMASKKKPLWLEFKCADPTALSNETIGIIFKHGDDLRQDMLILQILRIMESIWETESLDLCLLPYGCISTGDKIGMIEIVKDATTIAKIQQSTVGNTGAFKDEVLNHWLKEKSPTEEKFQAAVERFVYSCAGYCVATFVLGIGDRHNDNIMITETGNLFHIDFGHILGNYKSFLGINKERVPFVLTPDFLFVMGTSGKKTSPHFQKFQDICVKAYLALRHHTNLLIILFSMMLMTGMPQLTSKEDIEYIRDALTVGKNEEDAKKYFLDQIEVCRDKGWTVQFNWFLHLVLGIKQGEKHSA
PI3K β, sequence (P42338 whole entry): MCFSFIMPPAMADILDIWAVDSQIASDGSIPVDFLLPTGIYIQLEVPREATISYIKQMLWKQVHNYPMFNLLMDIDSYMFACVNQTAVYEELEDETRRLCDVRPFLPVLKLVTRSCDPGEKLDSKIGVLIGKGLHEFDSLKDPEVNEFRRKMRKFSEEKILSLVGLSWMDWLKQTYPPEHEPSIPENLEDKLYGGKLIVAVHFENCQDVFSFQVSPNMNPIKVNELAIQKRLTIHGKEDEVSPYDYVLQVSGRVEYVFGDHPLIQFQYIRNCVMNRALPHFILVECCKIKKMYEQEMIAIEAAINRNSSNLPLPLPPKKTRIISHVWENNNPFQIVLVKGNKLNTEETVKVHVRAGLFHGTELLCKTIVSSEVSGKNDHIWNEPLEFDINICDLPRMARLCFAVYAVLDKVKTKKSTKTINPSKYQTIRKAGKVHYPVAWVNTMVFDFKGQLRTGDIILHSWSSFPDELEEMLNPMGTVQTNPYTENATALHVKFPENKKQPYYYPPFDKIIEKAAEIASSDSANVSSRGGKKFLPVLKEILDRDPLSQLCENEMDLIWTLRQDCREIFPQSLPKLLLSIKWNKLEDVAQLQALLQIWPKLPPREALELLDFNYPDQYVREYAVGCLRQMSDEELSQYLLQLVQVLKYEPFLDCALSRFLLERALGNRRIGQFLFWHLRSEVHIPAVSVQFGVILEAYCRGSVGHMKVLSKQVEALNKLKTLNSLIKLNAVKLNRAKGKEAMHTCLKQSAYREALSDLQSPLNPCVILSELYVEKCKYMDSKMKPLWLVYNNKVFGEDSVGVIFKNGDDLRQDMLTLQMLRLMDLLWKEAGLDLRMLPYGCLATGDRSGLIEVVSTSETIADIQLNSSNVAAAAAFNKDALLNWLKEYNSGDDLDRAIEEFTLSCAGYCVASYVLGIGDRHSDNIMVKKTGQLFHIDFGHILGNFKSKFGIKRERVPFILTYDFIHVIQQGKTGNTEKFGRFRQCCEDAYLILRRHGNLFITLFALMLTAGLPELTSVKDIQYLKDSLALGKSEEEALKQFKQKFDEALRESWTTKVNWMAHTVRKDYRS
T1 sequence (P42336 whole entry): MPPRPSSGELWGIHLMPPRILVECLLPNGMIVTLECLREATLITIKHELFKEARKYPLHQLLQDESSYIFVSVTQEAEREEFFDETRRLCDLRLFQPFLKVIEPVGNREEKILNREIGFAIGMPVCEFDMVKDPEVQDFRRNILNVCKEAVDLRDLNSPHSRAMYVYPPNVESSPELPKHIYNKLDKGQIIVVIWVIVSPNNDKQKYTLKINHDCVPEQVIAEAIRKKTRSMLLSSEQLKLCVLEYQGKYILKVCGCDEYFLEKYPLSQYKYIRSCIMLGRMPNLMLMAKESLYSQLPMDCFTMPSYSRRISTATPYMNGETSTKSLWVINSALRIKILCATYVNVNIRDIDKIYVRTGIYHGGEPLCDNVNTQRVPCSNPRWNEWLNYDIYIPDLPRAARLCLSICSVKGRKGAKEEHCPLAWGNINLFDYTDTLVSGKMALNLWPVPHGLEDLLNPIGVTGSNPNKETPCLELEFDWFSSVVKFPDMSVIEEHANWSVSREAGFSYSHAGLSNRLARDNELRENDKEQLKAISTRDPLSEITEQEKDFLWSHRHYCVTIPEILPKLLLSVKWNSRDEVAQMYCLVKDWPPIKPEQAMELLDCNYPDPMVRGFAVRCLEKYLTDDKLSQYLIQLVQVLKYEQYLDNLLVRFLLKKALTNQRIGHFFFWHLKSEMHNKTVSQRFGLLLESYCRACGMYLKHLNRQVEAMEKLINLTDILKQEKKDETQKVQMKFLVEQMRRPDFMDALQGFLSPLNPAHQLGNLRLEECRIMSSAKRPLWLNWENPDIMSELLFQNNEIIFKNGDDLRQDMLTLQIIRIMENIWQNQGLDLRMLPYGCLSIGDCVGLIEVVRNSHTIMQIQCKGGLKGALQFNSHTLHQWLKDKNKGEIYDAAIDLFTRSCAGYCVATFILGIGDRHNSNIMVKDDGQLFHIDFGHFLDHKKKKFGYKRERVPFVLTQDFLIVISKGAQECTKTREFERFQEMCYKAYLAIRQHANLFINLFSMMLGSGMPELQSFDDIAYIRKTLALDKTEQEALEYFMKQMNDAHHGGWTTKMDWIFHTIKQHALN
T1 sequence (P27986 whole entry partner): as the sequence (P27986 whole entry partner) above

Row | IC50 (PI3K α) [µM] | IC50 (PI3K β) [µM] | IC50 (PI3K γ) [µM] | IC50 (PI3K δ) [µM] | SMILES
1 | > 10 | < 1 | < 0.1 | < 0.1 | Cc1cccc2cc(Cn3nc(-c4cccc(O)c4)c4c(N)ncnc43)n(-c3ccccc3C(C)C)c(=O)c12 [Compound 82]
2 | > 10 | < 10 | < 10 | < 0.1 | CCC(Nc1ncnc2[nH]cnc12)c1cc2cccc(C)c2c(=O)n1C(C)C (centres unmarked) [Compound 219]
3 | < 10 | < 1 | < 0.1 | < 0.1 | Cc1cccc2cc(C(C)Nc3ncnc4[nH]cnc34)n(-c3ccc(F)cc3)c(=O)c12 (centres unmarked) [Compound 213]
4 | > 10 | < 10 | < 0.1 | < 0.1 | Cc1ccccc1-n1c(Cn2nc(-c3cn[nH]c3)c3c(N)ncnc32)cc2cccc(C)c2c1=O [Compound 160]
5 | > 10 | > 10 | < 1 | < 0.1 | Cc1cccc2cc(Cn3nc(C#C[C@@H](C)O)c4c(N)ncnc43)n(-c3ccccc3F)c(=O)c12 [Compound 28]
6 | > 10 | > 10 | < 10 | < 1 | Cc1cccc2cc(Cn3nc(Cl)c4c(N)ncnc43)n(-c3ccccc3F)c(=O)c12 [Compound 34]
7 | < 10 | < 10 | < 0.1 | < 0.1 | Cc1cccnc1-n1c(Cn2nc(-c3ccc4oc(N)nc4c3)c3c(N)ncnc32)cc2cccc(C)c2c1=O [Compound 240]
8 | < 10 | < 10 | < 1 | < 0.1 | Cc1cccc2cc(Cn3nc(-c4cc(O)cc(F)c4)c4c(N)ncnc43)n(-c3ccccc3OCCN3CCOCC3)c(=O)c12 [Compound 108]
9 | > 10 | > 10 | < 10 | < 1 | COc1cc(F)cc(-c2nn(Cc3cc4cccc(C)c4c(=O)n3-c3ccccc3C)c3ncnc(N)c23)c1 [Compound 181]
10 | > 10 | > 10 | < 10 | < 0.1 | CCc1nn(Cc2cc3cccc(C)c3c(=O)n2-c2ccccc2C)c2ncnc(N)c12 [Compound 294]
11 | > 10 | > 10 | < 1 | < 0.1 | Cc1ccccc1-n1c(Cn2nc(C#CCO)c3c(N)ncnc32)cc2cccc(C)c2c1=O [Compound 11]
12 | > 10 | < 1 | > 10 | < 0.1 | Cc1cccc2cc(C(C)Nc3ncnc4[nH]cnc34)n(C3CCN(C)CC3)c(=O)c12 (centres unmarked) [Compound 227]
13 | < 10 | < 0.1 | < 0.1 | < 0.1 | Cc1cccc2cc([C@H](C)Nc3ncnc4[nH]nc(C(N)=O)c34)n(-c3ccccc3)c(=O)c12 [Compound 256]
14 | > 10 | < 10 | < 1 | < 0.1 | Cc1cccc2cc(Cn3nc(-c4cn[nH]c4)c4c(N)ncnc43)n(-c3ccccc3F)c(=O)c12 [Compound 161]
15 | < 1 | < 10 | < 0.1 | < 0.1 | Cc1ccccc1-n1c(Cn2nc(-c3ccc4nc(N)ccc4c3)c3c(N)ncnc32)cc2cccc(C)c2c1=O [Compound 149]
16 | < 10 | < 0.1 | < 0.1 | < 0.1 | Cc1cccc2cc([C@H](C)Nc3ncnc4[nH]ccc34)n(C3CC3)c(=O)c12 [Compound 273]
17 | > 10 | < 1 | < 1 | < 0.1 | Cc1cccc2cc([C@H](C)Nc3nc(N)ncc3Cl)n(C3CC3)c(=O)c12 [Compound 267]
18 | > 10 | > 10 | < 1 | < 0.1 | Cc1cccc2cc(C(C)Nc3ncnc4[nH]cnc34)n(-c3cc(F)cc(F)c3)c(=O)c12 (centres unmarked) [Compound 222]
19 | > 10 | > 10 | < 1 | < 0.1 | Cc1cccc2cc(Cn3nc(-c4cccc(O)c4)c4c(N)ncnc43)n(-c3ccccc3F)c(=O)c12 [Compound 10]
20 | < 10 | < 10 | < 1 | < 0.1 | Cc1cccc2cc(Cn3nc(-c4cn[nH]c4)c4c(N)ncnc43)n(-c3ccccc3)c(=O)c12 [Compound 206]
21 | > 10 | > 10 | < 1 | < 0.1 | Cc1cccc2cc(Cn3nc(-c4ccc(F)c(O)c4)c4c(N)ncnc43)n(-c3ccccc3F)c(=O)c12 [Compound 9]
22 | > 10 | > 10 | < 1 | < 10 | Cc1ccccc1-n1c(Cn2nc(-c3cnn(C)c3)c3c(N)ncnc32)cc2cccc(C)c2c1=O [Compound 165]
23 | > 10 | > 10 | < 0.1 | < 0.1 | Cc1ccccc1-n1c(Cn2nc(-c3ccc(F)c(O)c3)c3c(N)ncnc32)cc2cccc(F)c2c1=O [Compound 56]

Row | IC50 (PI3K α) [µM] | IC50 (PI3K β) [µM] | IC50 (PI3K γ) [µM] | IC50 (PI3K δ) [µM] | SMILES
24 | < 10 | < 10 | < 0.1 | < 0.1 | Cc1cccc2cc([C@H](C)Nc3ncnc4[nH]cnc34)n(C3CCC3)c(=O)c12 [Compound 198]
25 | > 10 | < 10 | < 1 | < 1 | Cc1cccc2cc(Cn3nc(-c4ccc(Cl)c(O)c4)c4c(N)ncnc43)n(C3CCCC3)c(=O)c12 [Compound 71]
26 | > 10 | > 10 | < 10 | < 1 | Cc1cccc2cc(Cn3nc(I)c4c(N)ncnc43)n(C)c(=O)c12 [Compound 107]
27 | > 10 | > 10 | < 10 | > 10 | Cc1cccc2cc([C@H](C)Nc3ncnc4[nH]c(Cl)nc34)n(-c3ccccc3)c(=O)c12 [Compound 261]
28 | > 10 | > 10 | < 1 | < 0.1 | Cc1cccc2cc([C@H](C)Nc3nc(N)ncc3F)n(-c3ccccc3)c(=O)c12 [Compound 271]
29 | > 10 | > 10 | < 1 | < 1 | Cc1ccccc1-n1c(Cn2nc(C#CC3CC3)c3c(N)ncnc32)cc2cccc(C)c2c1=O [Compound 14]
30 | < 10 | < 10 | < 0.1 | < 0.1 | Cc1cccc2cc(Cn3nc(I)c4c(N)ncnc43)n(C3CC3)c(=O)c12 [Compound 86]
31 | > 10 | > 10 | < 0.1 | < 0.1 | CC(=O)Nc1nc2ccc(-c3nn(Cc4cc5cccc(C)c5c(=O)n4-c4ccccc4C)c4ncnc(N)c34)cc2o1 [Compound 266]
32 | > 10 | > 10 | > 10 | > 10 | Cc1cccc2cc([C@H](C)Nc3ncnc4[nH]c(Cl)nc34)n(C3CC3)c(=O)c12 [Compound 280]
33 | > 10 | > 10 | < 10 | < 1 | Cc1cccc2cc(Cn3nc(I)c4c(N)ncnc43)n(C3CCCC3)c(=O)c12 [Compound 57]
34 | > 10 | < 10 | < 0.1 | < 0.1 | Cc1cccc2cc(Cn3nc(-c4ccc(F)c(O)c4)c4c(N)ncnc43)n(C(C)C)c(=O)c12 [Compound 67]
35 | > 10 | > 10 | < 1 | < 0.1 | Cc1cccc2cc(Cn3nc(C#CCO)c4c(N)ncnc43)n(-c3ccccc3F)c(=O)c12 [Compound 8]
36 | > 10 | > 10 | < 1 | < 0.1 | Cc1cccnc1-n1c(Cn2nc(-c3cc(O)cc(F)c3)c3c(N)ncnc32)cc2ccccc2c1=O [Compound 93]
37 | > 10 | > 10 | > 10 | > 10 | Cc1cccc2cc([C@H](C)Nc3ncnc4[nH]c(O)nc34)n(-c3ccccc3)c(=O)c12 [Compound 263]
38 | < 1 | < 1 | < 0.1 | < 0.1 | Cc1cccc2cc(Cn3nc(-c4ccc5oc(N)nc5c4)c4c(N)ncnc43)n(C3CCC3)c(=O)c12 [Compound 208]
39 | < 10 | < 10 | < 0.1 | < 0.1 | COc1ccccc1-n1c(Cn2nc(-c3cc(O)cc(F)c3)c3c(N)ncnc32)cc2cccc(C)c2c1=O [Compound 84]
40 | > 10 | > 10 | < 1 | < 0.1 | Cc1cccc2cc(Cn3nc(C#C[C@@H](C)O)c4c(N)ncnc43)n(-c3ccccc3Cl)c(=O)c12 [Compound 98]
41 | < 10 | < 10 | < 0.1 | < 0.1 | Cc1ccccc1-n1c(Cn2nc(/C=C3/SC(=O)NC3=O)c3c(N)ncnc32)cc2cccc(C)c2c1=O [Compound 173]
42 | > 10 | > 10 | < 1 | < 0.1 | Cc1cccc2cc(Cn3nc(-c4cn[nH]c4)c4c(N)ncnc43)n(-c3cccc(F)c3)c(=O)c12 [Compound 166]
43 | < 10 | < 1 | < 0.1 | < 0.1 | CCc1ccccc1-n1c(Cn2nc(-c3cc(O)cc(F)c3)c3c(N)ncnc32)cc2cccc(C)c2c1=O [Compound 89]
44 | > 10 | > 10 | < 1 | < 10 | Cc1ccccc1-n1c(Cn2nc(-c3cccc(Cl)c3)c3c(N)ncnc32)cc2cccc(C)c2c1=O [Compound 39]
45 | > 10 | > 10 | < 10 | < 10 | CCN(Cc1cc2cccc(C)c2c(=O)n1-c1ccccc1C)c1ncnc2[nH]cnc12 [Compound 186]
46 | < 1 | < 0.1 | < 0.1 | < 0.1 | Cc1cccc2cc(C(C)Nc3nc(N)nc4[nH]cnc34)n(-c3ccccc3)c(=O)c12 (centres unmarked) [Compound 320]

Row | SMILES | IC50 (PI3K α) [µM] | IC50 (PI3K β) [µM] | IC50 (PI3K γ) [µM] | IC50 (PI3K δ) [µM]
47 | Cc1ccccc1-n1c(Cn2nc(C(=O)NO)c3c(N)ncnc32)cc2cccc(C)c2c1=O [Compound 300] | > 10 | < 10 | < 1 | < 1
